Assay results reported in US10702526B2, “Inhibitors of immune checkpoint modulators and related methods” (eFFECTOR Therapeutics, Inc., priority 2015, dated 2020).

What was measured:
[1] = test system: PD-1 expression on Jurkat cells; test: PD-1 expression on PHA/PMA-activated Jurkat T cells (flow cytometry); format: cell-based, human; conditions: Jurkat T cell assay, MNK-specific inhibitors
Description: (§1) To examine the effect of MNK-specific inhibitors on PD-1 expression, Jurkat cells (Clone E6.1, ATCC, transformed T cells) were used, which express PD-1 when activated through T cell receptor (TCR) signaling. Briefly, Jurkat cells were grown in 1×RPMI with 1× Pen/Strep, and 10% FBS, then about 3×10^6 Jurkat cells were activated in presence of 1 μg/mL PHA (Sigma) and 50 ng/mL PMA (Sigma). Test Cells were treated simultaneously with various concentrations of MNK-specific inhibitor Compound 107 (0, 0.01, 0.1, 1, 3 and 10 μM). After 48 hours, culture supernatants were harvested and examined via sandwich ELISA for the presence of IL-2 using human IL-2 ELISA DuoSet® (R&D Systems, Minneapolis, Minn.). The level of PD-1 on Jurkat cells was examined by incubating cells with fixable dead cell stain (1:20,000; BD Biosciences, San Jose, Calif.) for 15 minutes at 4° C., washed twice with flow staining buffer (1×PBS, 4% FBS and 1 mM EDTA), incubated with human FcR block, then contacted with allophycocyanin (APC) conjugated anti-PD-1 antibody (Biolegend, San Diego, Calif.) for 30 minutes at 4° C., washed two times with flow buffer, and finally cells were fixed with fixation buffer for 20 minutes at 4° C. After fixation, cells were washed twice with flow buffer and re-suspended in flow buffer and assessed for fluorescence using BD Accuri C6 flow cytometer. Data were analyzed using the C6 cytometer software (BD Biosciences, San Jose, Calif.).

Jurkat cells = test: Jurkat T cell viability (fixable dead cell stain); format: cell-based; conditions: Jurkat T cell assay, MNK-specific inhibitors
Description: as §1

[2] = test system: IL-10 production in primary T cells; test: IL-10 production by activated primary T cells; format: cell-based, human

| SMILES | % PD-1 + Inhibition [1] | Cell Death (Jurkat cells) | % IL-10 Inhibition [2] |
| --- | --- | --- | --- |
| Cc1cc(Nc2ncnc(N)c2Cl)c(=O)n2c1C(=O)NC21CCN(CCC(F)(F)F)CC1 [Compound 775] | − (− = 0-10%) | − (− = 0-10%) | – |
| Cc1cc(Nc2ncnc(N)c2Cl)c(=O)n2c1C(=O)NC21CNCCC1(C)C (stereo not shown) [Compound 1090] | +++ (+++ = 50-75%) | + (+ = 10-25%) | – |
| Cc1cc(Nc2ncnc(N)c2C)c(=O)n2c1C(=O)NC21CCN(CCC(F)(F)F)CC1 [Compound 753] | − (− = 0-10%) | − (− = 0-10%) | – |
| Cc1cc(Nc2cc(N)ncn2)c(=O)n2c1C(=O)NC21CCCC1.Cl [Compound 98] | +++ (+++ = 50-75%) | − (− = 0-10%) | – |
| Cc1cc(Nc2ncnc(N)c2Cl)c(=O)n2c1C(=O)NC21CCN(C)C(C)(C)C1 (stereo not shown) [Compound 1053] | + (+ = 10-25%) | − (− = 0-10%) | – |
| Cc1cc(-n2ccc3c(N)ncnc32)nc2c1C(=O)NC21CCCCC1 [Compound 652] | ++++ (++++ = 75-100%) | − (− = 0-10%) | – |
| Cc1cc(Nc2ncnc(N)c2OCCN)c(=O)n2c1C(=O)NC21CCCCC1 [Compound 827] | ++ (++ = 25-50%) | − (− = 0-10%) | – |
| Cc1cc(Nc2ncnc(N)c2Cl)c(=O)n2c1C(=O)NC21CC(C)N(C)C(C)C1 (stereo not shown) [Compound 1031] | +++ (+++ = 50-75%) | +++ (+++ = 50-75%) | – |
| Cc1cc(Nc2ncnc(N)c2Cl)c(=O)n2c1C(=O)NC21CCN(C)CC1(C)C (stereo not shown) [Compound 1008] | +++ (+++ = 50-75%) | ++ (++ = 25-50%) | – |
| Cc1cc(Nc2ncnc(N)c2C)c(=O)n2c1C(=O)NC21CCCN(C)C1 (stereo not shown) [Compound 917] | ++ (++ = 25-50%) | + (+ = 10-25%) | – |
| Cc1cc(Nc2ncnc(N)c2C)c(=O)n2c1C(=O)NC21CCN(CC(F)F)CC1(C)C (stereo not shown) [Compound 1092] | ++ (++ = 25-50%) | − (− = 0-10%) | – |
| Cc1cc(Nc2ncnc(N)c2Cl)cc2c1C(=O)NC21CCCCC1 [Compound 462] | ++++ (++++ = 75-100%) | + (+ = 10-25%) | – |
| Cc1cc(Nc2ncnc(N)c2C)c(=O)n2c1C(=O)NC21CNCCC1(C)C (stereo not shown) [Compound 1091] | ++ (++ = 25-50%) | − (− = 0-10%) | – |
| Cc1cc(Nc2ncnc(N)c2Cl)c(=O)n2c1C(=O)N[C@]21CCCNC1 [Compound 969] | +++ (+++ = 50-75%) | − (− = 0-10%) | – |
| Cc1cc(Nc2ncnc(N)c2Cl)nc2c1C(=O)NC21CCCCC1 [Compound 624] | ++++ (++++ = 75-100%) | + (+ = 10-25%) | – |
| Cc1cc(Nc2ncnc(N)c2C)c(=O)n2c1C(=O)NC21CCN(CC(F)F)CC1 [Compound 590] | ++ (++ = 25-50%) | − (− = 0-10%) | ++++ (++++ = 75-100%) |
| Cc1cc(Nc2ncnc3[nH]ccc23)cc2c1C(=O)NC21CCCCC1 [Compound 637] | ++++ (++++ = 75-100%) | ++ (++ = 25-50%) | – |
| Cc1cc(Nc2ncnc(N)c2C)nc2c1C(=O)NC21CCCCC1 [Compound 622] | ++++ (++++ = 75-100%) | − (− = 0-10%) | – |
| Cc1cc(Nc2ncnc(N)c2Cl)c(=O)n2c1C(=O)NC21CCN(C2CC2)CC1 [Compound 752] | − (− = 0-10%) | − (− = 0-10%) | – |
| Cc1cc(Nc2ncnc(N)c2Cl)c(=O)n2c1C(=O)NC21CCCNC1 (stereo not shown) [Compound 750] | +++ (+++ = 50-75%) | − (− = 0-10%) | ++++ (++++ = 75-100%) |
| Cc1cc(Nc2ncnc(N)c2Cl)c(=O)n2c1C(=O)NC21CCCCC1 [Compound 474] | +++ (+++ = 50-75%) | − (− = 0-10%) | ++++ (++++ = 75-100%) |
| CCCN1CCC2(CC1)NC(=O)c1c(C)cc(Nc3ncnc(N)c3Cl)c(=O)n12 [Compound 776] | + (+ = 10-25%) | − (− = 0-10%) | – |
| Cc1cc(Nc2ncnc(N)c2C)cc2c1C(=O)NC21CCCCC1 [Compound 440] | ++++ (++++ = 75-100%) | − (− = 0-10%) | – |
| Cc1cc(Nc2ncnc(N)c2C)c(=O)n2c1C(=O)NC21CCOCC1 [Compound 626] | ++ (++ = 25-50%) | − (− = 0-10%) | – |
| Cc1cc(Nc2ncnc(N)c2Cl)c(=O)n2c1C(=O)N[C@@]21CCCNC1 [Compound 970] | +++ (+++ = 50-75%) | − (− = 0-10%) | – |
| Cc1cc(Nc2ncnc(N)c2Cl)c(=O)n2c1C(=O)NC21CCN(CC(F)F)CC1 [Compound 611] | ++ (++ = 25-50%) | − (− = 0-10%) | – |
